We go through 6 compounds from patent publication US11052060B2, “Compounds and methods for treating autoimmunity” (ImmunoMolecular Therapeutics, INC., priority 2018, dated 2021).

In one assay the target is insulin/DQ8 (Homo sapiens, UniProt P01909+P01920). The assay is described as follows: Inhibition of DQ8 antigen presentation to insulin-responsive CD4 TCR transductant (Clone 5), secreted IL-2 by ELISA. Format: cell-based. The settings on record: for IC50 / Clone 5 IC50 (insulin/DQ8): Clone 5 TCR transductant, HLA-DQ8 antigen presenting cells with insulin peptide, secreted IL-2; for inhibition of an insulin-responsive CD4 T cell receptor (TCR) transductant: FIG. 3A / FIG. 4A, secreted IL-2 by ELISA, result in words. As to the method: (§1) Inhibition of DQ8 antigen presentation by compounds of this disclosure was tested and compared in vitro. HLA-DQ8 antigen presenting cells were cultured with a fixed concentration of peptide and a concentration of one of the tested compounds for 4 hours. TCR transductants were then added to each culture condition and cultured overnight. Secreted IL-2 from the TCR transductant was measured by ELISA for each condition.
(§2) In these figures, 0 represents the TCR transductant response to peptide without the addition of the test compound.
Background: In an ELISA, binding on a coated surface is turned into a signal by an enzyme label.

Another assay addresses α-gliadin/DQ8 (Homo sapiens, UniProt P01909+P01920). The assay can be described thus: Inhibition of DQ8 antigen presentation to gliadin-responsive CD4 TCR transductant (489), secreted IL-2 by ELISA. The settings on record: for IC50 / 489 IC50 (α-gliadin/DQ8): 489 TCR transductant, HLA-DQ8 antigen presenting cells with α-gliadin peptide, secreted IL-2; for inhibition of gliadin-responsive CD4 TCR: FIG. 3B / FIG. 4B, secreted IL-2 by ELISA, result in words. Format: cell-based. The method, then:
as §1, §2

Structures are written as SMILES.

Sequence of α-gliadin/DQ8 (P01920 33-261 limits assumed, other chains not shown): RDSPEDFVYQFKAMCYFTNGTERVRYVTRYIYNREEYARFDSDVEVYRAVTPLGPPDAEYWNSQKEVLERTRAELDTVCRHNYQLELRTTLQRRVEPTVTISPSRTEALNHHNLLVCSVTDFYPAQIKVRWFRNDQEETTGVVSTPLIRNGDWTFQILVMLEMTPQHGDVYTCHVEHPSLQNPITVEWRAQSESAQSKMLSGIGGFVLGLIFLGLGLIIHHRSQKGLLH
Sequence of insulin/DQ8 (P01920 33-261 limits assumed, other chains not shown): as above

As for `C[C@@](N)(Cc1ccc(O)c(O)c1)C(=O)O` (stereo in doubt) [α-methyldopa, 2-amino-3-(3,4-dihydroxyphenyl)-2-methylpropanoic acid], at insulin/DQ8, the half-maximal inhibitory concentration (IC50) (as a rule, the concentration that gives 50% inhibition) was 3.4 µM and the “inhibition of an insulin-responsive CD4 T cell receptor (TCR) transductant” value was “concentration-dependent inhibition”. On α-gliadin/DQ8, the concentration for half-maximal inhibition (IC50) is 17.7 µM and the “inhibition of gliadin-responsive CD4 TCR” value is “concentration-dependent inhibition”.
Regarding `CC(N)[C@H](O)c1ccc(O)c(O)c1` (stereo in doubt) [α-methylnorepinephrine, 4-(2-amino-1-hydroxypropyl)benzene-1,2-diol], at insulin/DQ8, the “Clone 5 IC50 (insulin/DQ8)” value was “No inhibition”. Besides, the “489 IC50 (α-gliadin/DQ8)” value on α-gliadin/DQ8 is on record as “No inhibition”.
As to `CC(C)(C)C(N)(Cc1ccc(O)c(O)c1)C(=O)O.Cl` (centres unmarked) [Compound F994-0666], the “inhibition of an insulin-responsive CD4 T cell receptor (TCR) transductant” value on insulin/DQ8 is listed as “concentration-dependent inhibition”. Besides, the “inhibition of gliadin-responsive CD4 TCR” value at α-gliadin/DQ8 is listed as “concentration-dependent inhibition”.
As to `CCOC(=O)C(C)(N)Cc1ccc(O)c(O)c1` (stereo not drawn) [α-methyldopa ethyl ester, Ethyl-2-amino-3-(3,4 dihydroxyphenyl)-2-methylpropanoate], the IC50 was found to be 5.8 µM at insulin/DQ8 and 7.8 µM on α-gliadin/DQ8.
As to `CC(N)(Cc1ccccc1)C(=O)O` (stereo not drawn) [α-methylphenylalanine, 2-amino-2-methyl-3-phenylpropanoic acid], the “Clone 5 IC50 (insulin/DQ8)” value at insulin/DQ8 was “No inhibition”. Besides, at α-gliadin/DQ8, the “489 IC50 (α-gliadin/DQ8)” value is given as “No inhibition”.
Take `CC(N)(Cc1ccc(O)cc1)C(=O)O` (stereo not drawn) [α-methyltyrosine, 2-amino-3-(4-hydroxyphenyl)-2-methylpropanoic acid]: the “Clone 5 IC50 (insulin/DQ8)” value on insulin/DQ8 is “No inhibition”. Besides, at α-gliadin/DQ8, the “489 IC50 (α-gliadin/DQ8)” value is given as “No inhibition”.
